From patent US20180028471A1, “CONTINUOUS LOCAL SLOW-RELEASE OF THERAPEUTICS FOR HEAD AND NECK PROBLEMS AND UPPER AERODIGESTIVE DISORDERS” (Board of Supervisors of Louisiana State University and …, priority 2016, published 2018)

Tests used:
[1] = tested on: minimal residual disease; assay: Model of minimal residual disease (tumor formation, survival); format: in vivo
[2] = tested on: mTOR pathway markers; assay: Phase 2 biomarker exploratory trial: mTOR pathway markers in tumors and PBMCs; format: in vivo; conditions: HNSCC patients
Description: Criteria #1) Biomarker expression in normal tissue should be different from that in high risk tissue. In FIG. 2 we present an analysis of cancer (lanes 5, 6, 11, and 12) and non-cancer (patients with sleep apnea) (lanes1-4 and 7-10) patient samples. The cancer samples include tumors (T) and histologically tumor-free margins (M). […] Criteria #2) Biomarkers can be detected in small tissue specimens. In our studies we have successfully detected by western blots and even by IHC the various Akt/mTOR markers on samples often as small as 5 mm. Criteria #3) Biomarkers can be expressed in a quantity or pattern that can be correlated with the stage of carcinogenesis.

[3] = tested on: HNSCC cell lines; assay: Inhibition of cell proliferation in HNSCC cell lines; format: cell-based
Description: While curcumin can be used to treat these cancers, other compounds that act on these pathways may also be useful in treating these cancers and it should be readily recognized that such compounds could also be delivered by including in the formulations described herein.

[4] = tested on: normal fibroblast cell line CCL110; assay: Effects on normal fibroblast cell line CCL110 (proliferation); format: cell-based; conditions: normal fibroblast cell line CCL110, FIG. 1
[5] = tested on: PCI15a cells; assay: Modulation of NFκB and Akt/mTOR pathways in PCI15a cells; format: cell-based; conditions: 10 μM
[6] = tested on: SCC40 cells; assay: Modulation of NFκB and Akt/mTOR pathways in SCC40 cells; format: cell-based; conditions: 10 μM
[7] = tested on: SCC066; assay: Modulation of NFκB and Akt/mTOR pathways in SCC066 cells; format: cell-based; conditions: 10 μM, 24 and 48 hours
[8] = tested on: normal fibroblast cell line CCL110; assay: Modulation of NFκB and Akt/mTOR pathways in CCL110 normal fibroblasts; format: cell-based; conditions: 10 μM, 24 and 48 hours
[9] = tested on: SCC40 xenografts; assay: pAkt and pS6 in SCC40 xenografts of treated mice; format: in vivo; conditions: mice with SCC40 xenografts, FIG. 3B
[10] = tested on: tumor cells; assay: Chemoprevention model: pre-treatment before tumor cell injection, tumor volumes; format: in vivo, Balb/c nu/nu mice; conditions: 10 mg, pre-treated 4 days before tumor cell injection, about three weeks
Protocol: Balb/c nu/nu mice were randomized into treatment groups. […] Tumors were measured over approximately three weeks. […] ANOVA analysis. […] This also points to its role as a chemopreventive agent rather than a therapeutic agent.

[11] = tested on: TPA-induced tumor promotion on mouse skin; conditions: topical application of 10 μmol twice weekly; cited from earlier work
[12] = tested on: DMBA-induced oral tumors; conditions: 10 μmol topically to cheek pouch 3 times/week for 24 weeks; cited from earlier work
[13] = tested on: prostate cancer xenograft; conditions: p.o. gavage 5 mg/day, 5 days/week for 4 weeks; cited from earlier work

For `CO[C@H]1C[C@@H]2CC[C@@H](C)[C@@](O)(O2)C(=O)C(=O)N2CCCC[C@H]2C(=O)O[C@H]([C@H](C)C[C@@H]2CC[C@@H](OC(=O)C(C)(CO)CO)[C@H](OC)C2)CC(=O)[C@H](C)/C=C(\C)[C@@H](O)[C@@H](OC)C(=O)[C@H](C)C[C@H](C)/C=C/C=C/C=C/1C` [CCI-779, temsirolimus], the survival [1] was “improve survival”, the tumor formation [1] was “inhibit tumor formation” and the “mTOR pathway markers in tumors and PBMCs” value [2] was “modulation of these markers”.
In the case of `CO[C@H]1C[C@@H]2CC[C@@H](C)[C@@](O)(O2)C(=O)C(=O)N2CCCC[C@H]2C(=O)O[C@H]([C@H](C)C[C@@H]2CC[C@@H](OCCO)[C@H](OC)C2)CC(=O)[C@H](C)/C=C(\C)[C@@H](O)[C@@H](OC)C(=O)[C@H](C)C[C@H](C)/C=C/C=C/C=C/1C` [RAD001, everolimus, reference compound], the “sensitivity of a variety of cell lines” value [3] is reported as “wide range of sensitivity”.
With `COc1cc(/C=C/C(=O)CC(=O)/C=C/c2ccc(O)c(OC)c2)ccc1O` [curcumin] the “growth inhibitory effects on all HNSCC cell lines tested” value ([3]; all 10 HNSCC cell lines tested to date) was “growth inhibitory effects”, the “cell proliferation at 10 μM” value ([3]; all HNSCC cell lines, 10 μM, FIG. 1) was “inhibition of cell proliferation” and the “growth inhibitory effects at 48 hours” value ([3]; all three HNSCC cell lines, 48 hours) was “significant growth inhibitory effects”. The “concentration giving consistent inhibition of cell proliferation” value ([3]; variety of HNSCC cell lines, in vitro, FIG. 1) was “less than 10 μM”, the “sensitivity of a variety of cell lines” value [3] was “consistently sensitive” and the “dose required to see effects” value [4] was 20 to 40 µM. The pNFκB ([5]; 24 and 48 hours) was “no change”, the pAkt ([5]; 48 hours) was “down-regulated” and the “pS6 downstream of mTOR” value ([5]; 48 hours) was “down-regulated”. The Akt/mTOR pathway ([6]; 24 and 48 hours) was “no change”, the pNFκB ([6]; after 48 hours) was “down-regulation” and the Akt/mTOR pathway [7] was “did not show any modulation”. The “pNFκB or Akt/mTOR” value [8] was “no decrease”, the pAkt [9] was “significant decrease” and the pS6 [9] was “significant decrease”. For the same molecule, the “tumor volumes versus control (vehicle treated)” value [10] was “no significant difference”, the “inhibition of the number of tumors per mouse” value [11] was 98% and the “reduction of the number of DMBA-induced oral tumors” value [12] was roughly 40%. For the same molecule, the “inhibition of growth of prostate cancer xenograft” value [13] was roughly 50%.
